Here are results for 1 substance from PMC3797685, “Enhanced Production, Purification, Characterization and Mechanism of Action of Salivaricin 9 Lantibiotic Produced by Streptococcus salivarius NU10” (PLoS ONE, 2013).

Experiment [1] deals with S. salivarius strain NU10. In words: Salivaricin induction assay, strain NU10. In kind it is cell-based, Streptococcus salivarius. The following applies: 0.05 ml test sample (titre 4 AU/ml) added to washed cells in M17YESUCa, 18 h anaerobic; well diffusion assay, induced vs control tube. From the text: (§1) The bacteriocin-inducing activities present in crude extracts of S. salivarius strains NU10, YU10, K12 and in FPLC-purified salivaricin 9 peptide fractions having anti-Micrococcus luteus activity was investigated in this study. The crude extracts of producer cells designated as BLIS-NU10, BLIS-YU10 and BLIS-K12 were isolated by acidic methanol extraction of the producer cells as described previously. These crude BLIS extracts had the potential to contain at least two lantibiotics on the basis of PCR assessment for their content of lantibiotic structural genes. Strains NU10 and YU10 had the structural genes for salivaricin 9 and salivaricin A and strain K12 had salivaricin A and salivaricin B structural genes. […] Colonies from an 18 h culture of each S. salivarius strain NU10, YU10 and K12 grown anaerobically on BACa agar was used to inoculate 10 ml of M17YESUCa broth and incubated again under the same conditions. The cells were then collected by centrifugation at 18000 x g for 5 min and washed three times in saline buffer to reduce the levels of cell surface-associated lantibiotic before suspending in 10 ml of the same buffer. […] Induction of salivaricin 9 or salivaricin A production was recorded as inhibitory zones surrounding samples from the induced tubes but not the control tubes. […]

For experiment [2], the system named is S. salivarius strain YU10. Put plainly: Salivaricin induction assay, strain YU10. In kind it is cell-based, Streptococcus salivarius. The following applies: 0.05 ml test sample (titre 4 AU/ml) added to washed cells in M17YESUCa, 18 h anaerobic; well diffusion assay, induced vs control tube.
Excerpt: as §1
In general terms: Agar diffusion results depend on both activity and mobility in agar.

In the next experiment the test system is S. salivarius strain K12. In words: Salivaricin induction assay, strain K12. Conditions: 0.05 ml test sample (titre 4 AU/ml) added to washed cells in M17YESUCa, 18 h anaerobic; well diffusion assay, induced vs control tube. The class given is cell-based, Streptococcus salivarius.
Excerpt: as §1

Experiment [3] has as its system Lactococcus lactis strain ATCC11454. In words: Induction assay, nisin-producing strain ATCC11454. The following applies: 0.05 ml test sample, 18 h, well diffusion assay. The class given is cell-based.
Experiment [4] deals with Micrococcus luteus ATCC10240. Put plainly: Flow cytometry analysis of membrane disruption (propidium iodide). In kind it is cell-based. The following applies: 20 µg/ml; PI 25 µM; 30 minutes at 37°C; triplicate. How it is done:
For membrane integrity assay using the dye propidium iodide (PI), cultures of Micrococcus luteus ATCC10240 were grown over night at 37°C in THB supplemented with 0.5% glucose (THBG) and then diluted with fresh THBG to an OD600 of 0.1. The cells were centrifuged at 4000 x g for 5 minutes at 4°C and washed twice with washing buffer (2 mM HEPES + 2 mM glucose) before re-suspending in the same buffer and adjusting to OD600 0.1. The cells were exposed to salivaricin 9 (12, 20 µg/ml) or nisin (20 µg/ml) (Sigma) and PI (final concentration 25 µM) before incubating for 30 minutes at 37°C. Nuclease-Free Water (Promega, USA) was added instead of antibiotic and served as a negative control. Samples were analyzed using BD FACSCanto^TM II flow cytometer using excitation at 488 nm and with the standard filter setup. Each sample was examined in triplicate and the geometric mean fluorescence intensity (MFI) of gated cell populations was calculated (Figure 9).
Background: Flow cytometry measures light scatter and fluorescence of single cells or particles in a stream.

On to “Nisin: pore forming lantibiotic (Sigma), produced by Lactococcus lactis (ITSISLCTPGCKTGALMGCNMKTATCHCSIHVSK; not fully specified; Lantibiotic nisin-A; UniProt P13068 24-57, looked up) [reference compound]”, for which the “Preparation induces inhibitor production in NU10” value in experiment [1] is reported as “No”. In addition, the “Preparation induces inhibitor production in YU10” value in experiment [2] was “No”. The “Preparation induces inhibitor production in K12” value in the experiment with S. salivarius strain K12 is reported as “No”. Besides, the “Preparation induces inhibitor production in ATCC11454” value in experiment [3] is “Yes”. For the same substance, the “Propidium iodide uptake, geometric mean fluorescence intensity (MFI)” value in experiment [4] is recorded as “large increase”.
